# Source: patent US20030109490A1, “Composite stimulating iNOS enzyme which induce immuno-reactant nitric oxide synthesis and process for preparing the same” (priority 2001, published 2003)
# Assays:
# [1] = anti-oxidative activity calculated as UV blocking value; assay type: physicochemical; conditions: 528 nm
# Description: The anti-oxidative activity of the composite of this invention was measured at the wavelength of 528 nm using an UV-visible spectrometer (Cary, Virian Co., USA).
# Macrophage RAW264.7 = assay: NO production by macrophage RAW264.7 (microplate assay, griess reagent); assay type: cell-based; conditions: TAXOL 10 μg/ml
# Description: The production of NO was investigated as the following experiment
# Macrophage RAW264.7(ATCC) was cultivated in RPMI-1640 medium (RPMI-1640 GibcoBRL 23400-021) 1.62%, sodium hydrogen carbonate 0.2%, penicillin and streptomycin 1%) supplemented with 10% fetal bovine serum (GibcoBRL 26140-079, FBS). Cell was incubated at 37° C., 5% CO2, and 95% of humidified air (CO2 incubator).
# The production of NO was determined by employing microplate assay and the production of nitrate (NO3^−) which is an oxidized product of NO was also determined Macrophage RAW264.7(3×10^5 cells/ml) was grown in Dulbecco's modified eagle's medium supplemented with 100 U/ml penicillin, 100 μg/ml streptomycin, 10% FBS, 6 g/L HEPES, 3.7 g/L sodium hydrogen carbonate. Cell was stimulated against various control groups. Medium itself, rIFN-γ+the composite of the present invention, rIFN-γ+the composite of the present invention+LPS were stimulated to measure the production of nitrate (NO3^−) with time. After macrophage was cultured with INFγ 10 U/ml for 6 hours, the cell was incubated with each of the composite of the present invention (1 μg/ml), LPS(10 μg/ml), and the composite of the present invention (1 μg/ml)+LPS(10 μg/ml) to induce the production of nitrate (NO3^−).
# The medium was centrifuged (1000 ppm, 10 minutes) and 100 μl of the culture supernatant was reacted with 100 μl of griess reagent (37.5 mM sulphanilic acid, 12.5 mM N-(1-naphthyl) ethylenediamine dihydrochloride, 6.5 mM hydrogen chloride) at room temperature for 10 minutes. Absorbance was measured at 540 nm using spectrophotometer. After correlation coefficient between concentration of NO3^− and absorbance was determined using nitric acid salts having concentration of 0 to 5 μM, the concentration of NO3^−-produced from macrophage RAW264.7 was calculated.
# Macrophage RAW 264.7 = assay: TNF-α secretion of macrophage RAW 264.7 (ELISA); assay type: cell-based; conditions: rIFN-γ alone, no LPS, no composite, 28 hrs
# Description: Macrophage RAW 264.7 (3×10^5 cells/well) was cultivated in RPMI-1640 medium supplemented with each of rIFN-γ, composite of this invention, and rIFN-γ+LPS, and rIFN-γ+composite of this invention for 28 hrs.
# The secretion amount of TNF-α in the aforementioned cell was measured at a wavelength of 405 nm using ELISA method. Prior to analysis, several drops of 0.05% PBS (phosphate-buffered saline) was added to Tween 20 for its washing. All specimens for analysis was cultivated at 37° C. for 2 hrs. Recombinant murine TNF-α, so diluted, was used as a standard solution. An assay plate was exposed to (containing biotylate murine TNF-α, avidine peroxide, 30% H2O2), a substrate solution of ABTS (Azinobis(3-ethylbenzothiazoline-6-sulfonic acid).
molecule,measurement,setting,value
O=C1O[C@H]([C@@H](O)CO)C(O)=C1O [Vitamin C],anti-oxidative activity (UV blocking value),[1]; 0.1% solution,21.23%
same,anti-oxidative activity (UV blocking value),[1]; 0.5% solution,28.51%
same,anti-oxidative activity (UV blocking value),[1]; 1% solution,47.83%
same,anti-oxidative activity (UV blocking value),[1]; 2% solution,58.28%
CC(=O)O[C@H]1C(=O)[C@@]2(C)[C@H]([C@H](OC(=O)c3ccccc3)[C@]3(O)C[C@H](OC(=O)[C@H](O)[C@@H](NC(=O)c4ccccc4)c4ccccc4)C(C)=C1C3(C)C)[C@]1(OC(C)=O)CO[C@@H]1C[C@@H]2O [TAXOL ®],NO,"Macrophage RAW264.7; rIFN-γ added, no LPS, 0 h",<4.0 µM
same,NO,"Macrophage RAW264.7; rIFN-γ added, no LPS, 12 h",30.56 ± 3.2 µM
same,NO,"Macrophage RAW264.7; rIFN-γ and LPS added, 24 h",45.1 ± 1.2 µM
"rIFN-γ: recombinant IFN-γ used to stimulate macrophage RAW264.7 (protein, UniProt P01580 23-155, looked up) Interferon gamma: HGTVIESLESLNNYFNSSGIDVEEKSLFLDIWRNWQKDGDMKILQSQIISFYLRLFEVLKDNQAISNNISVIESHLITTFFSNSKAKKDAFMSIAKFEVNNPQVQRQAFNELIRVVHQLLPESSLRKRKRSRC",TNF-a,Macrophage RAW 264.7,0.76 ± 0.02 ng/mL
